Data on one compound can be found in patent US9133225B2, “Dual targeting anticancer agents” (priority 2013, dated 2015).

The test system of one data set is MCF-7 cells. Briefly: MTT cytotoxicity assay, MCF-7. To be noted: read-out: cytotoxicity IC50; MCF-7, breast; MTT, 48 h treatment; spread in brackets. The text has this:
(§1) (a) Dulbecco's Modified Eagle Medium (DMEM), Dulbecco's phosphate buffered saline (DPBS), fetal bovine serum (FBS) and 0.25% trypsin/EDTA solutions were purchased from Cellgro (Manassas, Va.). Penicillin-streptomycin solutions were purchased from Mediatech (Manassas, Va.). (b) HeLa (CCL-2TM) cells, A549, A2870, A2870/CP70, MCF-7, PC-3, and MRC-5 cells were purchased from American Type Culture Collection (ATCC, Manassas, Va., USA). (c) HCT116 cells were kindly donated by Laura Trudel (MIT). HeLa, A549, MCF-7, and MRC-5 cells were cultured using DMEM supplemented with 10% FBS and 1% penicillin-streptomycin. A2870, A2870/CP70, and PC-3 cells were cultured in RPMI supplemented with 10% FBS and 1% penicillin-streptomycin. HCT116 cells were cultured in McCoy's supplemented with 10% FBS and 1% penicillin-streptomycin. All cell-culture experiments were performed in the aforementioned media in an incubator operating at 37° C. and in the presence of a humidified atmosphere containing 5.0% CO2. Cells were harvested using a 0.25% trypsin/EDTA solution.
(§2) The cytotoxicity of the compounds was assessed by means of the MTT assay (MTT=3-(4,5-dimethyl-2-thiazolyl)-2,5-diphenyl-2H-tetrazolium bromide). Typically, on day one, ˜1×10^3 cells were seeded into 96-well plates in 100 μL media per well. The last row of the plate was left empty as a control for background absorption. The cells were allowed to grow for 24 h in the incubator at 37° C. On day two, a series of drug dilutions in growth media were prepared immediately prior to cell treatment. The media in the wells of the 96 plates were replaced with 100 μL of growth media containing appropriate drug concentrations. The cells were treated for 48 h at 37° C. in the incubator. On day four, a stock solution of MTT (5 mg/mL in PBS buffer) was diluted with media so that, when 100 μL of the media was added to each well, 10 μL of MTT stock was applied. […] The optical density for each well at 550 nm was measured with a microplate reader.

Another data set deals with PC-3 cells. Briefly: MTT cytotoxicity assay, PC-3. To be noted: read-out: cytotoxicity IC50; PC-3, prostate; MTT, 48 h treatment; spread in brackets.
Excerpt: as §1, §2
In general terms: Tetrazolium dyes change colour on reduction, which living cells bring about.

The subject of data set [1] is A549 cells. The experiment in a line: Cell cycle flow cytometry (propidium iodide). In kind it is cell-based. Conditions: 3 μM. The procedure: Flow-cytometric measurements were also performed to determine the effect of Pt(IV)(α-TOS)(OEt) exposure on cell cycle progression. A549 cells were treated with Pt(IV)(α-TOS)(OEt), 3 μM, for 24, and 48 hours. The cell cycle distribution was compared with untreated cells. […] After 24 hours the untreated population had 78.1% in G1 phase, 17.7% in S phase, 4.5% in G2/M phase. After 48 hours the untreated population had 81.0% in G1 phase, 16.0% in S phase, 3.0% in G2/M phase. After 24 hours the treated population had 64.7% in G1 phase, 31.7% in S phase, 3.6% in G2/M phase. After 48 hours, the treated population had 70.4% in G1 phase, 26.2% in S phase, 3.4% in G2/M phase. […] It was therefore clear that Pt(IV)(α-TOS)(OEt) disturbed DNA synthesis and arrest at S-phase.
In order to monitor the cell cycle, flow cytometry studies were carried out. A549 cells were incubated with and without the test compounds for 24 and 48 h at 37° C. Cells were harvested from adherent cultures by trypsinization and combined with all detached cells from the incubation medium to assess total cell viability. Following centrifugation at 1000 rpm for 5 min, cells were washed with PBS and then fixed with 70% ethanol in PBS. Fixed cells were collected by centrifugation at 2500 rpm for 3 min, washed with PBS and centrifuged as before. Cellular pellets were re-suspended in 50 μg/mL propidium iodide (Sigma) in PBS for nucleic acids staining and treated with 100 μg/mL RNaseA (Sigma). DNA content was measured on a FACSCalibur-HTS flow cytometer (BD Biosciences) using laser excitation at 488 nm and 20,000 events per sample were acquired. Cell cycle profiles were analysed using the ModFit software. For the apoptosis experiments, the Annexin V-FITC Early Apoptosis Detection Kit (Cell Signaling Technology) was used. The manufacture's protocol was followed to carry out this experiment. Briefly, untreated and treated cells (1×10^5) were suspended in 1× annexin binding buffer (96 μL) (10 mM HEPES, 140 mM NaCl, 2.5 mM CaCl2, pH 7.4), then 1 μL FITC annexin V and 12.5 μL propidium iodine (10 μg/mL) were added to each sample and incubated on ice for 15 min. Subsequently, more binding buffer (150 μL) was added while gently mixing. The samples were kept on ice prior to being read on the FACSCalibur-HTS flow cytometer (BD Biosciences) (20,000 events per sample were acquired). Cell populations were analysed using the FlowJo software (Tree Star). For the JC-1 assay, the JC-1 Mitochondrial Membrane Potential Assay Kit (Cayman) was used. The manufacture's protocol was followed to carry out this experiment. Briefly, to untreated and treated cells grown in 6-well plates (at a density of 5×10^5 cells/mL) was added the JC-1 staining solution (100 μL/mL of cell media). The cells were incubated for 30 min, harvested, and analysed by using the FACSCalibur-HTS flow cytometer (BD Biosciences) (20,000 events per sample were acquired). The FL1 channel was used to detect unhealthy or apoptotic cells with collapsed mitochondria. Cell populations were analysed using the FlowJo software (Tree Star).

The next data set concerns HCT116 cells. Briefly: MTT cytotoxicity assay, HCT116. Conditions: read-out: cytotoxicity IC50; HCT116, colon; MTT, 48 h treatment; spread in brackets.
Excerpt: as §1, §2

The test system of data set [2] is A549 cells. Briefly: MTT cytotoxicity assay, A549. To be noted: read-out: cytotoxicity IC50; A549, lung; MTT, 48 h treatment; spread in brackets.
Excerpt: as §1
(§3) The cytotoxicity of the compounds was assessed by means of the MTT assay (MTT=3-(4,5-dimethyl-2-thiazolyl)-2,5-diphenyl-2H-tetrazolium bromide). Typically, on day one, ˜1×10^3 cells were seeded into 96-well plates in 100 μL media per well. […] The optical density for each well at 550 nm was measured with a microplate reader.

In data set [3] the test system is A2780 ovarian carcinoma cells. The experiment in a line: MTT cytotoxicity assay, A2780. Conditions: read-out: cytotoxicity IC50; A2780, ovarian; MTT, 48 h treatment; spread in brackets.
Excerpt: as §1, §3

For data set [4], the system named is MRC-5 non-tumorigenic lung fibroblast cells. The experiment in a line: MTT cytotoxicity assay, MRC-5. To be noted: read-out: cytotoxicity IC50; MRC-5, lung normal; MTT, 48 h treatment; spread in brackets.
Excerpt: as §1
The cytotoxicity of the compounds was assessed by means of the MTT assay (MTT=3-(4,5-dimethyl-2-thiazolyl)-2,5-diphenyl-2H-tetrazolium bromide). Typically, on day one, ˜1×10^3 cells were seeded into 96-well plates in 100 μL media per well. The last row of the plate was left empty as a control for background absorption. The cells were allowed to grow for 24 h in the incubator at 37° C. On day two, a series of drug dilutions in growth media were prepared immediately prior to cell treatment. The media in the wells of the 96 plates were replaced with 100 μL of growth media containing appropriate drug concentrations. The cells were treated for 48 h at 37° C. in the incubator. On day four, a stock solution of MTT (5 mg/mL in PBS buffer) was diluted with media so that, when 100 μL of the media was added to each well, 10 μL of MTT stock was applied. The cells were incubated for 2 h and then all the media was replaced with 100 μL of DMSO to dissolve the purple MTT-formazan crystals. The optical density for each well at 550 nm was measured with a microplate reader.

With `CC[O][Pt]([NH2])([NH2])([Cl])([Cl])[O]C(=O)CCC(=O)Oc1c(C)c(C)c2c(c1C)CCC(C)(CCCC(C)CCCC(C)CCCC(C)C)O2` (stereo not drawn) [Pt(IV)(α-TOS)(OEt)], the IC50 – broadly, the concentration needed to halve the response being measured – with MCF-7 cells was 5900 nM; in the data set with PC-3 cells, 2500 nM; in the data set with HCT116 cells, 1240 nM; with A549 cells [2], 1300 nM; in data set [3], 20 nM; in data set [4] it was 5300 nM. The “cell population in G1 phase” value in the data set with A549 cells [1] (24 hours) was determined as 64.7%; in the data set with A549 cells [1] (48 hours) it was 70.4%. In addition, the “cell population in G2/M phase” value with A549 cells [1] (24 hours) stood at 3.6%; in the data set on A549 cells [1] (48 hours), 3.4%. For the same compound, the “cell population in S phase” value was 31.7% in the data set on A549 cells [1] (24 hours) and 26.2% in the data set on A549 cells [1] (48 hours).
